# Assays:
# Myzus persicae = Myzus persicae test (cabbage leaf dip); type: in vivo; settings: for Kill in % after 1 day: Table A1; for Kill in % after 6 days: Table A2
# Text: (§1) The expected activity for a given combination of two active compounds can be calculated (cf. COLBY, S. R.; “Calculating Synergistic and Antagonistic Responses of Herbicide Combinations”, Weeds 15, pages 20-22, 1967):
# (§2) if • X=the kill rate, expressed in % of the untreated control, when employing active compound A at an application rate of m ppm, • Y=the kill rate, expressed in % of the untreated control, when employing active compound B at an application rate of n ppm, • E=the kill rate, expressed in % of the untreated control, when employing active compounds A and B at application rates of m and n ppm, then
# (§3) If the actual insecticidal kill rate is higher than the calculated one, the kill rates of the combination are superadditive, i.e. a synergistic effect is present. In this case, the kill rate that is actually observed has to be higher than the value, calculated using the formula above, for the expected kill rate (E).
# (§4) To produce a suitable preparation of active compound, 1 part by weight of active compound is mixed with the stated amounts of solvent and emulsifier, and the concentrate is diluted with emulsifier-containing water to the desired concentration.
# Cabbage leaves (Brassica oleracea) which are heavily infested by the green peach aphid (Myzus persicae) are treated by being dipped into the preparation of active compound of the desired concentration.
# After the desired period of time, the kill in % is determined. 100% means that all aphids have been killed; 0% means that none of the aphids have been killed. The determined kill rates are entered into Colby's formula.
# Phaedon cochleariae = Phaedon cochleariae larvae test (cabbage leaf dip); type: in vivo; settings: for Kill in % after 4 days: Table B1; for Kill in % after 6 days: Table B2
# Text: as §1, §2, §3, §4
# Cabbage leaves (Brassica oleracea) are treated by being dipped into the preparation of active compound of the desired concentration and populated with larvae of the mustard beetle (Phaedon cochleariae) while the leaves are still moist.
# After the desired period of time, the kill in % is determined. 100% means that all beetle larvae have been killed; 0% means that none of the beetle larvae have been killed. The determined kill rates are entered into Colby's formula.
structure (smiles),measurement,setting,value
COCC(=O)N(c1c(C)cccc1C)[C@H](C)C(=O)OC [metalaxyl M],Kill in % after 1 day,Myzus persicae; 500 ppm,0%
same,Kill in % after 4 days,Phaedon cochleariae; 500 ppm,0%
"COC(=O)[C@@H](C)N(C(=O)Cc1ccccc1)c1c(C)cccc1C [benalaxyl M, methyl N-(phenylacetyl)-N-(2,6-xylyl)-D-alaninate]",Kill in % after 6 days,Myzus persicae; 500 ppm,0%
same,Kill in % after 6 days,Phaedon cochleariae; 500 ppm,0%
COC(=O)C(C)N(C(=O)Cc1ccccc1)c1c(C)cccc1C (stereo not shown) [benalaxyl],Kill in % after 6 days,Phaedon cochleariae; 500 ppm,0%
COCC(=O)N(c1c(C)cccc1C)C(C)C(=O)OC (stereo not shown) [metalaxyl],Kill in % after 1 day,Myzus persicae; 500 ppm,0%
CN/C(=N\[N+](=O)[O-])NCc1cnc(Cl)s1 [clothianidin],Kill in % after 1 day,Myzus persicae; 0.8 ppm,45%
same,Kill in % after 6 days,Myzus persicae; 0.8 ppm,35%
same,Kill in % after 4 days,Phaedon cochleariae; 4 ppm,40%
same,Kill in % after 6 days,Phaedon cochleariae; 4 ppm,60%
